Source: ChEMBL document CHEMBL4052695, “Introduction of fluorine to phenyl group of 4-(2-pyrimidinylamino)benzamides leading to a series of potent hedgehog signaling pathway inhibitors” (Bioorg Med Chem Lett, 2017)

Key:
Mus musculus = species: Mus musculus; experiment: Potency index, ratio of IC50 for Vismodegib to IC50 for test compound for inhibition of hedgehog signaling pathway in mouse NIH/3T3 cells carrying stably transfected Gli-reporter construct by luciferase reporter assay; type: cell-based
[1] = Inhibition of hedgehog signaling pathway in mouse NIH/3T3 cells carrying stably transfected Gli-reporter construct by luciferase reporter assay; type: cell-based; conditions: NIH3T3
[2] = Apparent volume of distribution in Sprague-Dawley rat at 1 mg/kg, iv formulated using 5% DMA + 5% Tween-80 measured during 2 mins to 24 hrs post dose by LC/MS/MS method; type: ADME, organism-based; conditions: in vivo, read-out: Vz
[3] = Clearance in Sprague-Dawley rat at 5 mg/kg, po formulated using 5% DMA + 5% Tween-80 measured during 2 mins to 24 hrs post dose by LC/MS/MS method; type: ADME, organism-based; conditions: in vivo
[4] = Cmax in Sprague-Dawley rat at 5 mg/kg, po formulated using 5% DMA + 5% Tween-80 measured during 2 mins to 24 hrs post dose by LC/MS/MS method; type: ADME, organism-based; parameters: dose 5 mg/kg, route oral; conditions: in vivo
Rattus norvegicus [5] = experiment: Apparent volume of distribution in Sprague-Dawley rat at 5 mg/kg, po formulated using 0.5% HPMC + 0.3% Tween-80 (pH = 2.8) measured during 2 mins to 24 hrs post dose by LC/MS/MS method; type: ADME, organism-based; conditions: in vivo, pH 2.8, 5 mg/kg
[6] = Cmax in Sprague-Dawley rat at 5 mg/kg, po formulated using 0.5% HPMC + 0.3% Tween-80 (pH = 2.8) measured during 2 mins to 24 hrs post dose by LC/MS/MS method; type: ADME, organism-based; parameters: dose 5 mg/kg, route oral; conditions: in vivo
Rattus norvegicus [7] = experiment: Apparent volume of distribution in Sprague-Dawley rat at 5 mg/kg, po formulated using 5% DMA + 5% Tween-80 measured during 2 mins to 24 hrs post dose by LC/MS/MS method; type: ADME, organism-based; conditions: in vivo
[8] = AUC (0 to t) in Sprague-Dawley rat at 1 mg/kg, iv formulated using 5% DMA + 5% Tween-80 measured during 2 mins to 24 hrs post dose by LC/MS/MS method; type: ADME, organism-based; parameters: dose 1 mg/kg, time 0.033-24 hr, route intravenous; conditions: in vivo
[9] = Clearance in Sprague-Dawley rat at 5 mg/kg, po formulated using 0.5% HPMC + 0.3% Tween-80 (pH = 2.8) measured during 2 mins to 24 hrs post dose by LC/MS/MS method; type: ADME, organism-based; conditions: in vivo
[10] = Mean residence time (0 to t) in Sprague-Dawley rat at 5 mg/kg, po formulated using 5% DMA + 5% Tween-80 measured during 2 mins to 24 hrs post dose by LC/MS/MS method; type: ADME, organism-based; conditions: in vivo
[11] = Half life in Sprague-Dawley rat at 5 mg/kg, po formulated using 0.5% HPMC + 0.3% Tween-80 (pH = 2.8) measured during 2 mins to 24 hrs post dose by LC/MS/MS method; type: ADME, organism-based; conditions: in vivo
[12] = AUC (0 to t) in Sprague-Dawley rat at 5 mg/kg, po formulated using 5% DMA + 5% Tween-80 measured during 2 mins to 24 hrs post dose by LC/MS/MS method; type: ADME, organism-based; parameters: time upper 24 hr, time lower 0.033 hr, dose 5 mg/kg, route oral; conditions: in vivo
[13] = Half life in Sprague-Dawley rat at 5 mg/kg, po formulated using 5% DMA + 5% Tween-80 measured during 2 mins to 24 hrs post dose by LC/MS/MS method; type: ADME, organism-based; conditions: in vivo
[14] = Clearance in Sprague-Dawley rat at 1 mg/kg, iv formulated using 5% DMA + 5% Tween-80 measured during 2 mins to 24 hrs post dose by LC/MS/MS method; type: ADME, organism-based; conditions: in vivo
[15] = AUC (0 to t) in Sprague-Dawley rat at 5 mg/kg, po formulated using 0.5% HPMC + 0.3% Tween-80 (pH = 2.8) measured during 2 mins to 24 hrs post dose by LC/MS/MS method; type: ADME, organism-based; parameters: time 0.033-24 hr, dose 5 mg/kg, route oral; conditions: in vivo
[16] = Cmax in Sprague-Dawley rat at 1 mg/kg, iv formulated using 5% DMA + 5% Tween-80 measured during 2 mins to 24 hrs post dose by LC/MS/MS method; type: ADME, organism-based; parameters: dose 1 mg/kg, route intravenous; conditions: in vivo
[17] = Mean residence time (0 to t) in Sprague-Dawley rat at 1 mg/kg, iv formulated using 5% DMA + 5% Tween-80 measured during 2 mins to 24 hrs post dose by LC/MS/MS method; type: ADME, organism-based; conditions: in vivo
[18] = Half life in Sprague-Dawley rat at 1 mg/kg, iv formulated using 5% DMA + 5% Tween-80 measured during 2 mins to 24 hrs post dose by LC/MS/MS method; type: ADME, organism-based; conditions: in vivo
[19] = Mean residence time (0 to t) in Sprague-Dawley rat at 5 mg/kg, po formulated using 0.5% HPMC + 0.3% Tween-80 (pH = 2.8) measured during 2 mins to 24 hrs post dose by LC/MS/MS method; type: ADME, organism-based; conditions: in vivo

Row | IC50 [1] [nM] | Compound | Ratio IC50 (Mus musculus) | further results
1 | 0.71 | Cc1ccc(OCCN2CCOCC2)cc1NC(=O)c1ccc(Nc2ncc(C)c(-c3ccc(OC(F)(F)F)cc3)n2)c(F)c1 | > 8 | –
2 | 0.9 | CCN(CC)Cc1ccc(C)c(NC(=O)c2ccc(Nc3ncc(C)c(-c4ccc(OC(F)(F)F)cc4)n3)c(F)c2)c1 | > 8 | –
3 | 1.15 | Cc1ccc(CN2CCOCC2)cc1NC(=O)c1ccc(Nc2ncc(C)c(-c3ccccn3)n2)c(F)c1 | – | –
4 | 0.94 | Cc1ccc(CN2CCCCC2)cc1NC(=O)c1ccc(Nc2ncc(C)c(-c3ccc(OC(F)(F)F)cc3)n2)c(F)c1 | > 8 | –
5 | 2.03 | Cc1ccc(CN2CCCC2)cc1NC(=O)c1ccc(Nc2ncc(C)c(-c3ccc(OC(F)(F)F)cc3)n2)c(F)c1 | – | –
6 | 0.78 | Cc1ccc(CN(C)C)cc1NC(=O)c1ccc(Nc2ncc(C)c(-c3ccc(OC(F)(F)F)cc3)n2)c(F)c1 | > 8 | –
7 | 0.5 | Cc1ccc(CN2CCOCC2)cc1NC(=O)c1ccc(Nc2ncc(C)c(-c3ccc(OC(F)(F)F)cc3)n2)c(F)c1 | 14 | –
8 | 7.2 | CS(=O)(=O)c1ccc(C(=O)Nc2ccc(Cl)c(-c3ccccn3)c2)c(Cl)c1 [VISMODEGIB] | – | –
9 | 0.05 | Cc1ccc(CN2CCOCC2)cc1NC(=O)c1ccc(Nc2ncc(C)c(-c3ccccc3)n2)c(F)c1 | 150 | –
10 | 48.9 | Cc1ccc(CN2CCOCC2)cc1NC(=O)c1ccc(Nc2nccc(-c3cnn(C)c3)n2)c(F)c1 | – | –
11 | 1.02 | Cc1ccc(OCCCN2CCOCC2)cc1NC(=O)c1ccc(Nc2ncc(C)c(-c3ccc(OC(F)(F)F)cc3)n2)c(F)c1 | – | –
12 | 42.7 | Cc1ccc(CN2CCN(C)CC2)cc1NC(=O)c1ccc(Nc2ncc(F)c(-c3ccncc3)n2)c(F)c1 | – | –
13 | 7.2 | Cc1ccc(CN2CCN(C)CC2)cc1NC(=O)c1ccc(Nc2nccc(-c3cccnc3)n2)c(F)c1 | – | –
14 | 5.67 | Cc1ccc(CN2CCN(C)CC2)cc1NC(=O)c1ccc(Nc2ncc(F)c(-c3ccc(OC(F)(F)F)cc3)n2)c(F)c1 | – | –
15 | 0.93 | Cc1ccc(CN2CCN(C)CC2)cc1NC(=O)c1ccc(Nc2ncc(C)c(-c3ccc(OC(F)(F)F)cc3)n2)c(F)c1 | > 8 | Vd [2]: 37.4 L/kg; CL/F [3]: 55.7 mL/min/kg; Cmax [4]: 62.4 ng/mL; Vz (Rattus norvegicus [5]): 69.4647 L/kg; Cmax [6]: 57.1 ng/mL; Vz (Rattus norvegicus [7]): 71.6877 L/kg; AUC(0-t) [8]: 383 ng·h/mL; CL/F [9]: 68.7 mL/min/kg; MRT last [10]: 10.7 h; half-life [11]: 11.7 h; AUC(0-t) [12]: 956 ng·h/mL; half-life [13]: 14.9 h; clearance [14]: 32.2 mL/min/kg; AUC(0-t) [15]: 882 ng·h/mL; Cmax [16]: 225 ng/mL; MRT last [17]: 7.93 h; half-life [18]: 13.5 h; MRT last [19]: 10.3 h
